The source of these data is patent US12509457B2, “Bicyclic nitrogen containing heterocycles as inhibitors of salt-induced kinase SIK2” (priority 2019, dated 2025).

Common to all, as to type: biochemical
One experiment deals with SIK2 (Homo sapiens, UniProt Q9H0K1). Kind of experiment: SIK2 kinase assay, IMAP fluorescence polarization. The conditions noted are these: 50 or 100 μM ATP; average; read-out: SIK2-AVERAGE Ki.
The target in a further experiment is SIK1 (Homo sapiens, UniProt P57059). Kind of experiment: SIK1 kinase assay, IMAP fluorescence polarization. The conditions noted are these: 50 or 100 μM ATP; average; read-out: SIK1-AVERAGE Ki. Background: Polarisation of emitted light reports the rotation of a fluorescent probe.
The target in another experiment is SIK3 (Homo sapiens, UniProt Q9Y2K2). Kind of experiment: SIK3 kinase assay, IMAP fluorescence polarization. Particulars: 50 or 100 μM ATP; average; read-out: SIK3-AVERAGE Ki.
For the next experiment, the target named is Abl (Homo sapiens, UniProt P00519). The experiment can be described thus: Abl kinase assay, IMAP fluorescence polarization. Particulars: 50 or 100 μM ATP; average; read-out: Abl-AVERAGE Ki.
In the next experiment the target is Src (Homo sapiens, UniProt P12931). The experiment can be described thus: Src kinase assay, IMAP fluorescence polarization. Particulars: 50 or 100 μM ATP; average; read-out: Src-AVERAGE Ki.
The next experiment addresses EPHA2 (Homo sapiens, UniProt P29317). The experiment can be described thus: EPHA2 kinase assay, IMAP fluorescence polarization.

Structures are written as SMILES. Read-outs that look alike come from different tables or passages of the source. Where only a bound is given, the exact number is not on record here.

SIK2, sequence (Q9H0K1 whole entry): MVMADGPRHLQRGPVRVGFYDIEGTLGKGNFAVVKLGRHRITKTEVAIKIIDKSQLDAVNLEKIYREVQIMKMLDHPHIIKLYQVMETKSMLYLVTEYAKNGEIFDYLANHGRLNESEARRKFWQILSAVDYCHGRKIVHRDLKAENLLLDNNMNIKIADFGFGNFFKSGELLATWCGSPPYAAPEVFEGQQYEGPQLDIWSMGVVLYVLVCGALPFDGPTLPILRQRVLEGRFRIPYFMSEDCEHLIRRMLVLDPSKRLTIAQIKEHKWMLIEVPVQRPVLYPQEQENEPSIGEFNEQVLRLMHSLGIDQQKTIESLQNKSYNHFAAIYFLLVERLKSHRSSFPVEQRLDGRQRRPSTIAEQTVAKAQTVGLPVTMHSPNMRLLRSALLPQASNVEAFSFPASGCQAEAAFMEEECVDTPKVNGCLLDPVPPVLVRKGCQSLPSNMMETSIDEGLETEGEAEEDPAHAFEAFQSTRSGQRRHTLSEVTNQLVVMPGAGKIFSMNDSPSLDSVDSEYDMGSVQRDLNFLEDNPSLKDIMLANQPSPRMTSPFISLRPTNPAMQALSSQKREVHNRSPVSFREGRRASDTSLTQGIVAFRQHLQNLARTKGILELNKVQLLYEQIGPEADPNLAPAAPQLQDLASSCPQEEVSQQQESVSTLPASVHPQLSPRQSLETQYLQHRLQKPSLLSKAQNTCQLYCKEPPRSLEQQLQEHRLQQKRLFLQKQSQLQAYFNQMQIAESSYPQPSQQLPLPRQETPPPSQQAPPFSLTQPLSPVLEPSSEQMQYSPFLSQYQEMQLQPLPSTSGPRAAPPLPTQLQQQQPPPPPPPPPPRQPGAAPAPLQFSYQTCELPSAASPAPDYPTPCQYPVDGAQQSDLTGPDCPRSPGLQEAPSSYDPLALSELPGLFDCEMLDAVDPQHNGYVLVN
EPHA2, sequence (P29317 24-976): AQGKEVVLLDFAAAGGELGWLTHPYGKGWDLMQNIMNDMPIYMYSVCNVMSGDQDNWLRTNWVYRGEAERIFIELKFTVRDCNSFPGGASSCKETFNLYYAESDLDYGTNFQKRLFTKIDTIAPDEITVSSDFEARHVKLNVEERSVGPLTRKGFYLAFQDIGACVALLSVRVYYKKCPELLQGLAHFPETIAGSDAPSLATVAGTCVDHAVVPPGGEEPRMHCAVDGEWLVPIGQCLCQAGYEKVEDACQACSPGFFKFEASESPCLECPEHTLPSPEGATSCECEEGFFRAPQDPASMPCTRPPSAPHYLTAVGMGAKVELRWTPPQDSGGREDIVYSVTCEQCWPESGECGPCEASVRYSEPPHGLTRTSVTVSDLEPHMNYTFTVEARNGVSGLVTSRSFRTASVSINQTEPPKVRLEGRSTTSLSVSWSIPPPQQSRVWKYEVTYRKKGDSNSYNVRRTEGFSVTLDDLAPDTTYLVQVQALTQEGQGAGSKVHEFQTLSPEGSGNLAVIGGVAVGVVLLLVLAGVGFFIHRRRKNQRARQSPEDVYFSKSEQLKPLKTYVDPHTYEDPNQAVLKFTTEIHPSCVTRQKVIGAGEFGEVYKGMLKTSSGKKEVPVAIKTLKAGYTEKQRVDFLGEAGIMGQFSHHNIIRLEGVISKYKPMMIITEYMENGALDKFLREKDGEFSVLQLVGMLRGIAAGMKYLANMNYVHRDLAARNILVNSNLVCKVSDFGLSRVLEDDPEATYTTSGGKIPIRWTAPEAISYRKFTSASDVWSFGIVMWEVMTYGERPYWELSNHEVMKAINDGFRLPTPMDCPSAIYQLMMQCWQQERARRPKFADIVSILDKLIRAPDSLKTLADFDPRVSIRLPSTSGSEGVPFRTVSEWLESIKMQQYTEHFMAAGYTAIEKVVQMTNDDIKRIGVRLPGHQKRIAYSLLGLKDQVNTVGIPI
Src, sequence (P12931 whole entry): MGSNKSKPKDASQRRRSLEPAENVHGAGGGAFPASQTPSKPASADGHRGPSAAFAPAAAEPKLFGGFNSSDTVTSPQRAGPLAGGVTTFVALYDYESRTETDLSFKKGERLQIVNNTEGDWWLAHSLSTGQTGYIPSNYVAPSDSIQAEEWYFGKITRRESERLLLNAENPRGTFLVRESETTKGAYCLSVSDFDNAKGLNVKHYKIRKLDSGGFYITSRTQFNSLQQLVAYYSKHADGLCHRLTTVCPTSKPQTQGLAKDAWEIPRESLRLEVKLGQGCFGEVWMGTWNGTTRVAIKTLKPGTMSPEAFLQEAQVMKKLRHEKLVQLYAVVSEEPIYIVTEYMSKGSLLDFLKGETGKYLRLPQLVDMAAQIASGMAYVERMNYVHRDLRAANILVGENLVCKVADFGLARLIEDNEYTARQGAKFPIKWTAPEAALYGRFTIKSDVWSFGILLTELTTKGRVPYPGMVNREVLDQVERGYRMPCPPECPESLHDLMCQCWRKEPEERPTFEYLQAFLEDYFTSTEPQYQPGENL
SIK3, sequence (Q9Y2K2 whole entry): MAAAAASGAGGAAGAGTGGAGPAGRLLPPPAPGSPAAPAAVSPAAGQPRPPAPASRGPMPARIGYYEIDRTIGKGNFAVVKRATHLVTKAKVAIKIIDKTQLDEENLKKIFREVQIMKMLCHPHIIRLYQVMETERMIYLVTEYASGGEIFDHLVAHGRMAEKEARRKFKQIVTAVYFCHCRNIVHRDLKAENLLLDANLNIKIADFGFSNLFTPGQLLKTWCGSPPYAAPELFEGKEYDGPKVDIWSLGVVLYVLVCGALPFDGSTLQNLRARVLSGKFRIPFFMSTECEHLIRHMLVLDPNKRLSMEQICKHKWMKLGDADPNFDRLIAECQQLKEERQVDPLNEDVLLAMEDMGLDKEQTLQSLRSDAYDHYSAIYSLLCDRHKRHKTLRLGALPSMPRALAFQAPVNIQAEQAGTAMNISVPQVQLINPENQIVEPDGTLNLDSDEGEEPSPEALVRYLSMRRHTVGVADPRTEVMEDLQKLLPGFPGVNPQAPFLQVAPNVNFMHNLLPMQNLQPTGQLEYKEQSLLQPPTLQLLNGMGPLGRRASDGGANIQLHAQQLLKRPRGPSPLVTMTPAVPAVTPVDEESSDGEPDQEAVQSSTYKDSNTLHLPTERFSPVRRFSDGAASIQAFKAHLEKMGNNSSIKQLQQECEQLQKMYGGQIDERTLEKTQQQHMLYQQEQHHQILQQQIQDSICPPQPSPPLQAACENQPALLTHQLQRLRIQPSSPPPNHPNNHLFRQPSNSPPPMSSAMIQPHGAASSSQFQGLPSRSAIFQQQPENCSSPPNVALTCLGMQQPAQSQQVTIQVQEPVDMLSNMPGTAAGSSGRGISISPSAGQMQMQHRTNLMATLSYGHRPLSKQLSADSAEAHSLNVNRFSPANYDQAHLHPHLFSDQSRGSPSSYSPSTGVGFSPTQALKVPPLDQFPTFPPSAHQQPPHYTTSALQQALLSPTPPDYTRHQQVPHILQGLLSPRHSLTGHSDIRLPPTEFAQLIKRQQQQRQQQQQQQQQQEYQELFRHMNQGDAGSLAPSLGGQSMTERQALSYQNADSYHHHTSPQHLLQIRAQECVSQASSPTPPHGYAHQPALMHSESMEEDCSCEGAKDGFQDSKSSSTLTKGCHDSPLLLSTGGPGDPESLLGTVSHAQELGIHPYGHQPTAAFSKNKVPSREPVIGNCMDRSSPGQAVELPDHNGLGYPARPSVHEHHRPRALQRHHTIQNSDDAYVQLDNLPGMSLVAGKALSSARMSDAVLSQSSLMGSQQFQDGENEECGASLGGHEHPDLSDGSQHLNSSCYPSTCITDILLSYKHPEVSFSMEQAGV
SIK1, sequence (P57059 whole entry): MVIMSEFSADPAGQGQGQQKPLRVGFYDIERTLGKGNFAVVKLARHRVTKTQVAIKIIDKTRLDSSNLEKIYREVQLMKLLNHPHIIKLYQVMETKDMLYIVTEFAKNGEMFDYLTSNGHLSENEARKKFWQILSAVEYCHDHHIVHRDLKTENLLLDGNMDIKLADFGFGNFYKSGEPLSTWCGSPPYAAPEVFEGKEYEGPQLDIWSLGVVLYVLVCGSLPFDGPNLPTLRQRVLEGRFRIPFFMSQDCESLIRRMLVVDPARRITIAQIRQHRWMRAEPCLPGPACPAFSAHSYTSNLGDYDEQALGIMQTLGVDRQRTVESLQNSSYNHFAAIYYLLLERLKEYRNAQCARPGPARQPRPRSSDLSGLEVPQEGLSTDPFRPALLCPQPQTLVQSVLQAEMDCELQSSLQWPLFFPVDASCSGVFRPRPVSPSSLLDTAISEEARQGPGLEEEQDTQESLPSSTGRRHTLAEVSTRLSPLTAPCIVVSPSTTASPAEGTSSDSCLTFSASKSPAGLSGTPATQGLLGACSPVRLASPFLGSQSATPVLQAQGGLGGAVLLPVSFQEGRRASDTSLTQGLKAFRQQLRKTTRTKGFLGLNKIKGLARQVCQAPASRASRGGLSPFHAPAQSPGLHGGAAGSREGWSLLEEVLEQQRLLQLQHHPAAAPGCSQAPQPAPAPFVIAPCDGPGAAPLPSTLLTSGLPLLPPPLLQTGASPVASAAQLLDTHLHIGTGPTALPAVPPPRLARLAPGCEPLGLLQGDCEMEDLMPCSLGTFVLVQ

As to `Cc1cccc(F)c1N1Cc2cnc(N)cc2N([C@@H]2CCCCNC2)C1=O` [Example 50, 7-amino-3-(2-fluoro-6-methyl-phenyl)-1-[(3R)-azepan-3-yl]-4H-pyrido[4,3-d]pyrimidin-2-one], the Ki – broadly, a dissociation constant, usually derived from enzyme kinetics or from competition with a known ligand – at SIK2 stood at 0.152 nM; at SIK1 it was 0.193 nM; at SIK3, 1.36 nM; at Abl it was 6.12 nM; on Src it was 24.2 nM; on EPHA2 (50 or 100 μM ATP, average), 13.6 nM.

For `Cc1cccc(F)c1N1Cc2cnc(N)nc2N(C2CCCC(N)C2)C1=O` (stereo not drawn) [Example 75, 7-amino-1-(3-aminocyclohexyl)-3-(2-fluoro-6-methyl-phenyl)-4H-pyrimido[4,5-d]pyrimidin-2-one], the Ki on SIK2 is 0.209 nM; at SIK1, 0.681 nM; at SIK3, 3.04 nM; on Abl, 13.8 nM; at Src, 11.6 nM; at EPHA2 (50 or 100 μM ATP, average), 9.26 nM.

For the compound `Cc1cccc(F)c1N1Cc2cnc(N)cc2N(CC2CCNCC2)C1=O` [Example 2, 7-amino-3-(2-fluoro-6-methyl-phenyl)-1-(4-piperidylmethyl)-4H-pyrido[4,3-d]pyrimidin-2-one], the Ki was determined as 0.163 nM at SIK2; 0.94 nM on SIK1; 0.55 nM at SIK3; 2.34 nM at Abl; 23.1 nM at Src; 38.7 nM on EPHA2 (50 or 100 μM ATP, average).

On to `Cc1cccc(F)c1N1Cc2cnc(N)cc2N([C@H]2CCCNCC2)C1=O` [Example 54, 7-amino-1-[(4S)-azepan-4-yl]-3-(2-fluoro-6-methyl-phenyl)-4H-pyrido[4,3-d]pyrimidin-2-one], for which the inhibition constant (Ki) at SIK2 was 0.719 nM; at SIK1 it was 2.08 nM; on SIK3, 4.14 nM; at Abl, 64.9 nM; at Src, 423 nM; at EPHA2 (50 or 100 μM ATP, average), 213 nM.

With `Cc1cccc(F)c1N1Cc2cnc(N)nc2N([C@@H]2CCNC2)C1=O` [Example 67, 7-amino-3-(2-fluoro-6-methyl-phenyl)-1-[(3R)-pyrrolidin-3-yl]-4H-pyrimido[4,5-d]pyrimidin-2-one], the Ki on SIK2 is 3.15 nM; at SIK1, 5.83 nM; at SIK3, 41.3 nM; at Abl it was 261 nM; at Src it was greater than 10000 nM; on EPHA2 (50 or 100 μM ATP, average), 127 nM.

Take `Cc1cccc(F)c1N1Cc2cnc(N)nc2N(C2CCC(N)C2)C1=O` (stereo not drawn) [Example 76, 7-amino-1-(3-aminocyclopentyl)-3-(2-fluoro-6-methyl-phenyl)-4H-pyrimido[4,5-d]pyrimidin-2-one]: the inhibitory constant (Ki) on SIK2 was 0.205 nM; at SIK1, 0.612 nM; at SIK3 it was 1.18 nM; at Abl it was 4.22 nM; on Src, 29.2 nM; at EPHA2 (50 or 100 μM ATP, average), 9.16 nM.

For `Cc1cccc(F)c1N1Cc2cnccc2N([C@H]2CCCCNC2)C1=O` [Example 52, 3-(2-fluoro-6-methyl-phenyl)-1-[(3S)-azepan-3-yl]-4H-pyrido[4,3-d]pyrimidin-2-one], the Ki at SIK2 is 13.7 nM; on SIK1, 42 nM; on SIK3 it was 288 nM; at Abl, greater than 10000 nM; at Src, greater than 10000 nM; on EPHA2 (50 or 100 μM ATP, average), 1520 nM.

For the compound `Cc1cccc(F)c1N1Cc2cnc(N)cc2N([C@@H]2CCN(C)C2)C1=O` [Example 80, 7-amino-3-(2-fluoro-6-methyl-phenyl)-1-[(3R)-1-methylpyrrolidin-3-yl]-4H-pyrido[4,3-d]pyrimidin-2-one], the Ki on SIK2 was 2.12 nM; on SIK1 it was 3.2 nM; at SIK3 it was 37.9 nM; at Abl, 352 nM; at Src, greater than 10000 nM; at EPHA2 it was 296 nM.

On to `CN[C@H]1CC[C@@H](N2C(=O)N(c3c(C)cccc3F)Cc3cnc(N)nc32)CC1` [Example 60, cis-7-Amino-3-(2-fluoro-6-methyl-phenyl)-1-[4-(methylamino)cyclohexyl]-4H-pyrimido[4,5-d]pyrimidin-2-one], for which the Ki on SIK2 stood at 0.464 nM; at SIK1 it was 1.38 nM; on SIK3 it was 2.6 nM; on Abl, 18 nM; at Src, 73.6 nM; at EPHA2 (50 or 100 μM ATP, average) it was 40.1 nM.

As to `Cc1cccc(F)c1N1Cc2cnc(N)nc2N(CC2CCNCC2)C1=O` [Example 12, 7-amino-3-(2-fluoro-6-methyl-phenyl)-1-(4-piperidylmethyl)-4H-pyrimido[4,5-d]pyrimidin-2-one], the Ki on SIK2 was found to be 0.149 nM; on SIK1 it was 0.822 nM; on SIK3, 0.721 nM; on Abl it was 3.12 nM; at Src, 39.3 nM; at EPHA2 (50 or 100 μM ATP, average), 27.9 nM.

As to `Cc1cccc(F)c1N1Cc2cnc(N)cc2N([C@H]2CCCNC2)C1=O` [Example 49, 7-amino-3-(2-fluoro-6-methyl-phenyl)-1-[(3S)-3-piperidyl]-4H-pyrido[4,3-d]pyrimidin-2-one], the Ki at SIK2 was 0.473 nM; at SIK1, 0.878 nM; on SIK3, 3.21 nM; on Abl, greater than 1000 nM; on Src, greater than 1000 nM; on EPHA2, greater than 1000 nM.

`Cc1cccc(F)c1N1Cc2cnc(N)nc2N([C@@H]2CCCN(C)CC2)C1=O` [Example 34, 7-amino-3-(2-fluoro-6-methyl-phenyl)-1[(4R)-1-methylazepan-4-yl]-4H-pyrimido[4,5-d]pyrimidin-2-one]: the Ki on SIK2 was 0.374 nM; at SIK1 it was 0.733 nM; on SIK3, 1.48 nM; at Abl it was 33.6 nM; on Src it was 138 nM; on EPHA2 it was 29.6 nM.

With `Cc1cccc(F)c1N1Cc2cnc(N)nc2N([C@H]2CCCCN(C)C2)C1=O` [Example 36, 7-amino-3-(2-fluoro-6-methyl-phenyl)-1-[(3S)-1-methylazepan-3-yl]-4H-pyrimido[4,5-d]pyrimidin-2-one], the Ki on SIK2 was determined as 0.68 nM; at SIK1, 1.85 nM; at SIK3, 8.61 nM; at Abl, 62.1 nM; at Src, 138 nM; at EPHA2 (50 or 100 μM ATP, average), 124 nM.

On to `Cc1cccc(Cl)c1N1Cc2cnc(N)cc2N(C2CN(C)C2)C1=O` [Example 9, 7-amino-3-(2-chloro-6-methyl-phenyl)-1-(1-methylazetidin-3-yl)-4H-pyrido[4,3-d]pyrimidin-2-one], for which the Ki is 17.9 nM at SIK2; 29.2 nM at SIK1; 145 nM on SIK3; greater than 1000 nM on Abl; greater than 1000 nM on Src; 175 nM at EPHA2.

As for `Cc1cccc(F)c1N1Cc2cnc(N)nc2N([C@H]2CCCN(C)CC2)C1=O` [Example 35, 7-amino-3-(2-fluoro-6-methyl-phenyl)-1-[(4S)-1-methylazepan-4-yl]-4H-pyrimido[4,5-d]pyrimidin-2-one], the Ki at SIK2 was 0.383 nM; at SIK1 it was 1.17 nM; on SIK3 it was 2.12 nM; at Abl it was 105 nM; at Src, 287 nM; at EPHA2 it was 38.7 nM.

For the compound `Cc1cccc(F)c1N1Cc2cnc(N)cc2N([C@@H]2CCCNCC2)C1=O` [Example 51, 7-amino-3-(2-fluoro-6-methyl-phenyl)-1-[(4R)-azepan-4-yl]-4H-pyrido[4,3-d]pyrimidin-2-one], the Ki at SIK2 came out at 0.181 nM; on SIK1, 0.409 nM; on SIK3, 0.82 nM; at Abl, 10.5 nM; on Src it was 91.3 nM; at EPHA2 (50 or 100 μM ATP, average), 31 nM.
